The assay concerns the target CDK2/Cyclin E1 (Homo sapiens, UniProt P24941). As to the kind of experiment: CDK2/Cyclin E1 Caliper LabChip EZ Reader mobility shift assay. The format is biochemical. On the set-up: purchased Eurofins 14-475. The note with it: read-out: Caliper Assay (CDK2/CCNE1): IC50. The essentials:
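Substrate-to-product conversion of fluorescent peptide (1.5 μM final) read by capillary electrophoresis after 100 min reaction, EDTA-quenched. Enzyme (2.5 nM final) and ATP (100 μM final) were preincubated 30 min with inhibitor dilutions first. % activity vs concentration fitted four-parameter for IC50.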

On to `CNC(=O)[C@@H](NC(=O)[C@H]1CN(Cc2cnco2)CC12CN(C(=O)[C@H]1CC1(C)C)C2)[C@@H](C)OCc1ccccc1` [I-78B], for which the IC50 was more than 10 µM.
As for `CNC(=O)[C@@H](NC(=O)[C@@H]1CN(S(=O)(=O)c2cnn(Cc3ccccc3)c2)CC12CN(C(=O)[C@H]1CC1(C)C)C2)[C@@H](C)OCc1ccccc1` [I-79A], the figure is more than 10 µM; as for `CNC(=O)[C@@H](NC(=O)[C@H]1CN(S(=O)(=O)c2cnn(Cc3ccccc3)c2)CC12CN(C(=O)[C@H]1CC1(C)C)C2)[C@@H](C)OCc1ccccc1` [I-79B], more than 10 µM; as for `CNC(=O)[C@@H](NC(=O)[C@@H]1CN(C(=O)c2cnn(Cc3ccccc3)c2)CC12CN(C(=O)C1(c3ccc(C(C)(C)C)cc3)CC1)C2)[C@@H](C)OCc1ccccc1` [I-80A], more than 10 µM.
For the compound `CNC(=O)[C@@H](NC(=O)[C@H]1CN(C(=O)c2cnn(Cc3ccccc3)c2)CC12CN(C(=O)C1(c3ccc(C(C)(C)C)cc3)CC1)C2)[C@@H](C)OCc1ccccc1` [I-80B], the IC50 is more than 10 µM.
On to `CC1(C)C[C@@H]1C(=O)N1CC2(CN(C(=O)c3cnn(Cc4ccccc4)c3)C[C@H]2C(=O)Nc2ccc(-c3ccccc3)cc2)C1` [I-81A], for which the IC50 lay within 0.1 to 1 µM.
As for `CC1(C)C[C@@H]1C(=O)N1CC2(CN(C(=O)c3cnn(Cc4ccccc4)c3)C[C@@H]2C(=O)Nc2ccc(-c3ccccc3)cc2)C1` [I-81B], the figure is 1 to 10 µM.
Then `CNC(=O)[C@@H](NC(=O)[C@@H]1CN(C(=O)c2cnn(Cc3ccccc3)c2)CC12CN(C(=O)CC1(COC)CC1)C2)[C@@H](C)OCc1ccccc1` [I-82A], with more than 10 µM; and `CNC(=O)[C@@H](NC(=O)[C@H]1CN(C(=O)c2cnn(Cc3ccccc3)c2)CC12CN(C(=O)CC1(COC)CC1)C2)[C@@H](C)OCc1ccccc1` [I-82B], with more than 10 µM; and `CC1(C)C[C@@H]1C(=O)N1CC2(CN(C(=O)c3cnn(Cc4ccccc4)c3)C[C@H]2C(=O)N[C@H]2CCCN(C(=O)c3ccccc3)C2)C1` [I-83A], with 1 to 10 µM.
Take `CC1(C)C[C@@H]1C(=O)N1CC2(CN(C(=O)c3cnn(Cc4ccccc4)c3)C[C@@H]2C(=O)N[C@H]2CCCN(C(=O)c3ccccc3)C2)C1` [I-83B]: the IC50 is more than 10 µM.
For `CC1(C)C[C@@H]1C(=O)N1CC2(CN(C(=O)c3cnn(Cc4ccccc4)c3)C[C@H]2C(=O)Nc2ccc(Cc3ccccc3)cc2)C1` [I-84A], the IC50 is 1 to 10 µM.
Then `CC1(C)C[C@@H]1C(=O)N1CC2(CN(C(=O)c3cnn(Cc4ccccc4)c3)C[C@@H]2C(=O)Nc2ccc(Cc3ccccc3)cc2)C1` [I-84B], with 1 to 10 µM.
As for `C[C@@H](OCc1ccccc1)[C@H](NC(=O)C1CN(C(=O)c2cnn(Cc3ccccc3)c2)CC12CN(C(=O)[C@H]1CC1(C)C)C2)C(=O)N1CCC(F)(F)CC1` (stereo partly shown) [I-85], the figure is 0.01 to 0.1 µM; as for `C[C@@H](OCc1ccccc1)[C@H](NC(=O)C1CN(C(=O)c2cnn(Cc3ccccc3)c2)CC12CN(C(=O)[C@H]1CC1(C)C)C2)C(=O)N1CCOCC1` (stereo partly shown) [I-86], 0.01 to 0.1 µM; as for `CNC(=O)[C@@H](NC(=O)[C@@H]1CN(C(=O)c2cnn(Cc3ccccc3)c2)CC12CN(C(=O)CC(F)(F)F)C2)[C@@H](C)OCc1ccccc1` [I-87A], 0.1 to 1 µM.
Then `CNC(=O)[C@@H](NC(=O)[C@H]1CN(C(=O)c2cnn(Cc3ccccc3)c2)CC12CN(C(=O)CC(F)(F)F)C2)[C@@H](C)OCc1ccccc1` [I-87B], with more than 10 µM; and `CNC(=O)[C@@H](NC(=O)[C@@H]1CN(C(=O)c2cnn(Cc3ccccc3)c2)CC12CN(C(=O)[C@H]1CC1(C)C)C2)[C@@H](C)O` [I-88A, (S)-6-(1-benzyl-1H-pyrazole-4-carbonyl)-2-((S)-2,2-dimethylcyclopropane-1-carbonyl)-N-((2S,3R)-3-hydroxy-1-(methylamino)-1-oxobutan-2-yl)-2,6-diazaspiro[3.4]octane-8-carboxamide], with more than 10 µM.
With `CNC(=O)[C@@H](NC(=O)[C@H]1CN(C(=O)c2cnn(Cc3ccccc3)c2)CC12CN(C(=O)C1CC1(C)C)C2)[C@@H](C)O` (stereo partly shown) [I-88B], the IC50 is more than 10 µM.

The values above are taken from US20240174680A1, “CDK2 INHIBITORS AND METHODS OF USING THE SAME” (Cedilla Therapeutics, Inc., priority 2021, published 2024).
